Usually viability stands for a read-out of living cells in per cent, often relative to untreated cells. In general, GI50 refers to the concentration at which growth is held to half of that of the control. A word on the LC50: it is the concentration lethal to half of the exposed cells or organisms.

The text below walks through data of patent US11174253B2, “Compound and pharmaceutical composition containing the same” (ALPHALA CO., LTD., priority 2017, dated 2021).

Assay type in all cases: cell-based
In experiment [1] the test system is hepatocellular carcinoma cell line Hep3B. Nature of the experiment: Growth inhibition of Hep3B cells, 48 hr treatment, Hoechst 33342 nucleus count (GE InCell 2200). The note with it: Homo sapiens. An outline of the steps: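 Compound exposure lasted 48 hr at 37° C, 5% CO2. Surviving nuclei were counted after Hoechst 33342 staining, and survival was expressed as the treated/non-treated cell number ratio, including the ratio at 10 μM compound.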

The subject of experiment [2] is Hep3B hepatocellular carcinoma cell line. Nature of the experiment: MTS cell viability assay (NCI-60 methodology), GI50/LC50, Hep3B. The note with it: Homo sapiens, 48 h, Hep3B cells, 2 days incubation with compound. On the procedure: (§1) The number of treated cells was determined by GE InCell 2200 system, and treated cells were stained with Hoechst 33342 which can reveal the remained nucleus in culture plate. The proportion of survival cells then were calculated with the ratio of treated/non-treated cells. The growth inhibition/cytotoxic effect of selected compounds were evaluated by the following protocol of NCI-60 screening platform. The human tumor cell lines are plating on a 96 well plate in a fixed density 24 hr prior compound treatment. Compounds with multiple concentrations are then added into each well for further 48 hr incubation. Cell viability is assessed by MTS method and the potency of compound is represented by GI50 and LC50 calculated by MTS result.
(§2) The cell viability measurement is based on the NCI-60 screening methodology (Nat. Rev. Cancer 6, 813-823, 2006). Briefly, cells are inoculated into 96-well plates at the optimal plating density. After 24 h, one of the two plates for each cell line is processed to determine a time zero cell viability (Tz) by MTS assay (Promega). Compounds are added over a 2-fold serial dilution to provide a total five drug concentrations plus DMSO control. Plates are incubated for a further 2 days, then measured cell viability by MTS assay [control growth (C) and test growth in the presence of drug at the five concentration levels (Ti)]. Growth inhibition of 50% (GI50) is calculated from [(Ti−Tz)/(C−Tz)]×100=50, which is the drug concentration resulting in a 50% reduction of control cells during the drug incubation. The LC50 is calculated from [(Ti−Tz)/Tz]×100=−50, which is the drug concentration resulting in a 50% reduction at the end of the drug treatment as compared to that at the beginning.
(§3) Herein, Hep3B refers to hepatocellular carcinoma cell line, SW480 refers to colon adenocarcinoma cell line, and NCI-H460 refers to human lung cancer cell line.
For orientation: Formazan colour is commonly taken as a measure of viable cells.

Experiment [3] relates to SW480 colon adenocarcinoma cell line. In words: MTS cell viability assay (NCI-60 methodology), GI50/LC50, SW480. The settings on record: Homo sapiens, 48 h, SW480 cells, 2 days incubation with compound. How it is done:
as §1, §2, §3

For experiment [4], the system named is NCI-H460 human lung cancer cell line. In words: MTS cell viability assay (NCI-60 methodology), GI50/LC50, NCI-H460. The note with it: 48 h, NCI-H460 cells, 2 days incubation with compound. On the procedure:
as §1, §2, §3

Where [5] appears, read: Table 6, ratio of number of tumor cells treated with 10 μM compound to non-treated cells.
The mark [6] stands for this setting: Table 5, ratio of number of tumor cells treated with 10 μM compound to non-treated cells.

Regarding `CCC(C)(C)c1ccc(-c2nc(NC(=O)c3ccc([N+](=O)[O-])s3)sc2-c2ccc(F)cc2F)cc1` [Compound 6-47, N-(5-(2,4-difluorophenyl)-4-(4-(tert-pentyl)phenyl)thiazol-2-yl)-5-nitrothiophene-2-carboxamide], the viability at 10 µM in experiment [1] (setting [5]) was 33%. In experiment [2], the GI50 is 590 nM and the LC50 came to 660 nM. For the same compound, in experiment [3], the 50% growth inhibitory concentration (GI50) is 640 nM and the LC50 (NCI-60 lethal concentration, 50% net cell loss vs time zero) was 1390 nM. Besides, in experiment [4], the GI50 was 580 nM and the LC50 (concentration giving 50% net cell loss versus time zero, NCI-60 definition) is 930 nM.
As to `CC(C)(C)c1ccc(-c2nc(NC(=O)c3ccc([N+](=O)[O-])s3)sc2-c2cc(F)cc(F)c2)cc1` [Compound 6-38, N-(4-(4-(tert-butyl)phenyl)-5-(3,5-difluorophenyl)thiazol-2-yl)-5-nitrothiophene-2-carboxamide], the viability at 10 µM in experiment [1] (setting [5]) worked out at 30%. In addition, in experiment [2], the GI50 came out at 630 nM and the LC50 was found to be 1610 nM. In addition, in experiment [3], the GI50 amounted to 740 nM and the LC50 (NCI-60 lethal concentration, 50% net cell loss vs time zero) is 4060 nM. In experiment [4], the 50% growth inhibitory concentration (GI50) stood at 700 nM and the LC50 (concentration giving 50% net cell loss versus time zero, NCI-60 definition) was 1650 nM.
Consider `O=C(Nc1nc(-c2ccc(OC(F)(F)F)cc2)c(Oc2ccccc2F)s1)c1ccc([N+](=O)[O-])s1` [Compound 5-85, N-(5-(2-fluorophenoxy)-4-(4-(trifluoromethoxy)phenyl)thiazol-2-yl)-5-nitrothiophene-2-carboxamide], for which the viability at 10 µM in experiment [1] (setting [6]) is 34%. Further, in experiment [2], the GI50 is 870 nM and the LC50 was 2540 nM. For the same compound, in experiment [3], the GI50 came to 1660 nM and the LC50 (NCI-60 lethal concentration, 50% net cell loss vs time zero) worked out at 5730 nM. In experiment [4], the GI50 is 750 nM and the LC50 (concentration giving 50% net cell loss versus time zero, NCI-60 definition) is 1580 nM.
Consider `CCCCCCOc1ccc(-c2nc(NC(=O)c3ccc([N+](=O)[O-])s3)sc2Oc2ccccc2)cc1` [Compound 5-67, N-(4-(4-(hexyloxy)phenyl)-5-phenoxythiazol-2-yl)-5-nitrothiophene-2-carboxamide], for which the viability at 10 µM in experiment [1] (setting [6]) worked out at 46%. Also, in experiment [2], the GI50 came to 620 nM and the median lethal concentration (LC50) was determined as 690 nM. Besides, in experiment [3], the GI50 turned out to be 1030 nM and the LC50 (NCI-60 lethal concentration, 50% net cell loss vs time zero) was determined as 1910 nM. Moreover, in experiment [4], the GI50 was 790 nM and the LC50 (concentration giving 50% net cell loss versus time zero, NCI-60 definition) worked out at 1350 nM.
As for `CCOc1ccc(-c2nc(NC(=O)c3ccc([N+](=O)[O-])s3)sc2Oc2ccc(C(C)(C)C)cc2)cc1` [Compound 5-29, N-(5-(4-(tert-butyl)phenoxy)-4-(4-ethoxyphenyl)thiazol-2-yl)-5-nitrothiophene-2-carboxamide], the viability at 10 µM in experiment [1] (setting [6]) worked out at 42%. For the same compound, in experiment [2], the GI50 amounted to 1840 nM and the LC50 was found to be 3860 nM. Moreover, in experiment [3], the 50% growth inhibitory concentration (GI50) worked out at 3340 nM and the LC50 (NCI-60 lethal concentration, 50% net cell loss vs time zero) came to 9950 nM. In experiment [4], the GI50 was 3240 nM and the LC50 (concentration giving 50% net cell loss versus time zero, NCI-60 definition) came out at 9120 nM.
`CCOc1ccc(-c2nc(NC(=O)c3ccc([N+](=O)[O-])s3)sc2Oc2cccc(C(F)(F)F)c2)cc1` [Compound 5-23, N-(4-(4-ethoxyphenyl)-5-(3-(trifluoromethyl)phenoxy)thiazol-2-yl)-5-nitrothiophene-2-carboxamide]: the viability at 10 µM in experiment [1] (setting [6]) came to 30%. In experiment [2], the GI50 amounted to 1220 nM and the LC50 is 3960 nM. Further, the GI50 in experiment [3] was 6420 nM. Besides, in experiment [4], the GI50 is 2490 nM and the LC50 (concentration giving 50% net cell loss versus time zero, NCI-60 definition) is 4430 nM.
Regarding `CC(C)(C)c1ccc(-c2nc(NC(=O)c3ccc([N+](=O)[O-])s3)sc2Oc2ccc(C(F)(F)F)cc2)cc1` [Compound 5-74, N-(4-(4-(tert-butyl)phenyl)-5-(4-(trifluoromethyl)phenoxy)thiazol-2-yl)-5-nitrothiophene-2-carboxamide], in experiment [1] (setting [6]), the viability at 10 µM is 33%. In experiment [2], the GI50 was found to be 1160 nM and the LC50 was determined as 1680 nM. In addition, in experiment [3], the GI50 was 690 nM and the LC50 (NCI-60 lethal concentration, 50% net cell loss vs time zero) was determined as 1290 nM. For the same compound, in experiment [4], the 50% growth inhibitory concentration (GI50) amounted to 720 nM and the LC50 (concentration giving 50% net cell loss versus time zero, NCI-60 definition) was 1300 nM.
As for `O=C(Nc1nc(-c2ccc(C(F)(F)F)cc2)c(Oc2ccccc2)s1)c1ccc([N+](=O)[O-])s1` [Compound 5-81, 5-nitro-N-(5-phenoxy-4-(4-(trifluoromethyl)phenyl)thiazol-2-yl)thiophene-2-carboxamide], in experiment [1] (setting [6]), the viability at 10 µM was found to be 30%. Further, in experiment [2], the GI50 worked out at 980 nM and the LC50 is 4230 nM. Besides, in experiment [3], the GI50 was determined as 2470 nM and the LC50 (NCI-60 lethal concentration, 50% net cell loss vs time zero) worked out at 8600 nM. Further, in experiment [4], the GI50 came to 810 nM and the LC50 (concentration giving 50% net cell loss versus time zero, NCI-60 definition) is 2110 nM.
As to `CCCOc1ccc(-c2nc(NC(=O)c3ccc([N+](=O)[O-])s3)sc2Oc2cccc(F)c2)cc1` [Compound 5-24, N-(5-(3-fluorophenoxy)-4-(4-propoxyphenyl)thiazol-2-yl)-5-nitrothiophene-2-carboxamide], the viability at 10 µM in experiment [1] (setting [6]) is 28%. Further, in experiment [2], the 50% growth inhibitory concentration (GI50) turned out to be 950 nM and the 50% lethal concentration (LC50) worked out at 2070 nM. Moreover, in experiment [3], the GI50 was found to be 1140 nM and the LC50 (NCI-60 lethal concentration, 50% net cell loss vs time zero) was 4230 nM. Besides, in experiment [4], the GI50 came to 1570 nM and the LC50 (concentration giving 50% net cell loss versus time zero, NCI-60 definition) came out at 3790 nM.
For `CCOc1cnccc1-c1nnc(NC(=O)Cc2ccc3nc(N)sc3c2)s1` [Compound 1-25, 2-(2-aminobenzo[d]thiazol-6-yl)-N-(5-(3-ethoxypyridin-4-yl)-1,3,4-thiadiazol-2-yl)acetamide], the viability at 10 µM in experiment [1] (Table 1, ratio of number of tumor cells treated with 10 μM compound to non-treated cells) was 54%. For the same compound, in experiment [2], the GI50 worked out at 170 nM and the LC50 was 500 nM. Moreover, in experiment [3], the GI50 came out at 350 nM and the LC50 (NCI-60 lethal concentration, 50% net cell loss vs time zero) came out at 1040 nM. The GI50 in experiment [4] came to 320 nM.
Turning to `O=C(Nc1nc(-c2ccc(Br)cc2)c(Oc2ccc(OC(F)(F)F)cc2)s1)c1ccc([N+](=O)[O-])s1` [Compound 5-18, N-(4-(4-bromophenyl)-5-(4-(trifluoromethoxy)phenoxy)thiazol-2-yl)-5-nitrothiophene-2-carboxamide], in experiment [2], the GI50 stood at 3090 nM and the LC50 is 4770 nM. Besides, in experiment [3], the 50% growth inhibitory concentration (GI50) was found to be 2520 nM and the LC50 (NCI-60 lethal concentration, 50% net cell loss vs time zero) stood at 4750 nM. Moreover, in experiment [4], the concentration for 50% growth inhibition (GI50) worked out at 6400 nM.
Consider `CCOc1ccc(-c2nnc(NC(=O)Cc3ccc4nc(N)sc4c3)s2)c(OCCOC)c1` [Compound 1-32, 2-(2-aminobenzo[d]thiazol-6-yl)-N-(5-(4-ethoxy-2-(2-methoxyethoxy)phenyl)-1,3,4-thiadiazol-2-yl)acetamide], for which, in experiment [2], the GI50 was determined as 170 nM and the LC50 came to 540 nM. Besides, in experiment [3], the GI50 was 230 nM and the LC50 (NCI-60 lethal concentration, 50% net cell loss vs time zero) was determined as 690 nM. Also, in experiment [4], the 50% growth inhibitory concentration (GI50) came out at 140 nM and the LC50 (concentration giving 50% net cell loss versus time zero, NCI-60 definition) stood at 600 nM.
Turning to `CCOc1ccc(-c2nc(NC(=O)Cc3ccc4nc(N)sc4c3)sc2-c2ccc(F)cc2)cc1` [Compound 3-9, 2-(2-aminobenzo[d]thiazol-6-yl)-N-(4-(4-ethoxyphenyl)-5-(4-fluorophenyl)thiazol-2-yl)acetamide], the GI50 in experiment [2] was 2270 nM; in experiment [3] it was 8950 nM; in experiment [4] it was 2390 nM.
`CCOc1ccc(-c2nnc(NC(=O)Cc3ccc4nc(N)sc4c3)s2)c(OCCN(C)C)c1` [Compound 1-29, 2-(2-aminobenzo[d]thiazol-6-yl)-N-(5-(2-(2-(dimethylamino)ethoxy)-4-ethoxyphenyl)-1,3,4-thiadiazol-2-yl)acetamide]: the GI50 in experiment [2] came out at 200 nM; in experiment [3], 3340 nM; in experiment [4], 5200 nM. Also, in experiment [2], the LC50 came out at 1100 nM.
With `CCCOc1ccc(-c2nc(NC(=O)c3ccc([N+](=O)[O-])s3)sc2Oc2ccccc2)cc1` [Compound 5-9, 5-nitro-N-(5-phenoxy-4-(4-propoxyphenyl)thiazol-2-yl)thiophene-2-carboxamide], the viability at 10 µM in experiment [1] (setting [6]) was 32%. The values for the GI50 in experiment [2] and in experiment [4] were 2430 nM and 1110 nM, respectively. Besides, the LC50 (concentration giving 50% net cell loss versus time zero, NCI-60 definition) in experiment [4] is 2860 nM.
